Measured values as given in paper PMC9097471, “Development of Selective Phosphatidylinositol 5-Phosphate 4-Kinase γ Inhibitors with a Non-ATP-competitive, Allosteric Binding Mode” (Journal of Medicinal Chemistry, 2022).

Legend:
PI5P4Kα = molecular target: T1, PI5P4Kα (Homo sapiens, UniProt P48426); assay: Thermal shift assay; conditions: read-out: ΔTm PI5P4Kα, thermal shift, compound 63 μM
T1 sequence (P48426 1-406): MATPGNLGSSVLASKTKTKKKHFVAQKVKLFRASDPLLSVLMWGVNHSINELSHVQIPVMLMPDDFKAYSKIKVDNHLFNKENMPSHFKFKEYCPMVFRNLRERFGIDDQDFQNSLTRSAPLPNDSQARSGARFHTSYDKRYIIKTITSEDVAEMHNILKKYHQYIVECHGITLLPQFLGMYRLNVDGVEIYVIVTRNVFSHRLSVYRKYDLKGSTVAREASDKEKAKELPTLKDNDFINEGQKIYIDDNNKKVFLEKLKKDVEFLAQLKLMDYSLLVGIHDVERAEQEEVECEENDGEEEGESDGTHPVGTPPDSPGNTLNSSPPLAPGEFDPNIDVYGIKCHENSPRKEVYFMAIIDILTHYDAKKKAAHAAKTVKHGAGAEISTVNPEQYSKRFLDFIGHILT

MINK1 = MINK1 (Homo sapiens, UniProt Q8N4C8); assay: Kinase panel, radiometric 33P filter binding; conditions: read-out: % activity remaining
Excerpt: (§2) filter binding assay using 33P-g-ATPat the MRC PPU International Centre for Kinase Profiling, University of

PIM3 = PIM3 (Homo sapiens, UniProt Q86V86); assay: Kinase panel, radiometric 33P filter binding; conditions: read-out: % activity remaining
Excerpt: as §2

p38a MAPK = p38a MAPK (Homo sapiens, UniProt Q16539); assay: Kinase panel, radiometric 33P filter binding; conditions: read-out: % activity remaining
Excerpt: as §2

IR = IR (Homo sapiens, UniProt P06213); assay: Kinase panel, radiometric 33P filter binding; conditions: read-out: % activity remaining
Excerpt: as §2

TLK1 = TLK1 (Homo sapiens, UniProt Q9UKI8); assay: Kinase panel, radiometric 33P filter binding; conditions: read-out: % activity remaining
Excerpt: as §2

EPH-B4 = EPH-B4 (Homo sapiens, UniProt P54760); assay: Kinase panel, radiometric 33P filter binding; conditions: read-out: % activity remaining
Excerpt: as §2

MNK2 = MNK2 (Homo sapiens, UniProt Q9HBH9); assay: Kinase panel, radiometric 33P filter binding; conditions: read-out: % activity remaining
RSK2 = RSK2 (Homo sapiens, UniProt P51812); assay: Kinase panel, radiometric 33P filter binding; conditions: read-out: % activity remaining
Excerpt: as §2

EPH-B2 = EPH-B2 (Homo sapiens, UniProt P29323); assay: Kinase panel, radiometric 33P filter binding; conditions: read-out: % activity remaining
Excerpt: as §2

ASK1 = ASK1 (Homo sapiens, UniProt Q99683); assay: Kinase panel, radiometric 33P filter binding; conditions: read-out: % activity remaining
Excerpt: as §2

PDGFRA = PDGFRA (Homo sapiens, UniProt P16234); assay: Kinase panel, radiometric 33P filter binding; conditions: read-out: % activity remaining
Excerpt: as §2

S6K1 = S6K1 (Homo sapiens, UniProt P23443); assay: Kinase panel, radiometric 33P filter binding; conditions: read-out: % activity remaining
Excerpt: as §2

CDK9-Cyclin T1 = CDK9-Cyclin T1 (Homo sapiens, UniProt P50750); assay: Kinase panel, radiometric 33P filter binding; assay type: biochemical; conditions: CDK9-Cyclin T1, 10 μM
Excerpt: (§1) Kinase % activity remaining s.d.

SmMLCK = SmMLCK (Homo sapiens, UniProt Q15746); assay: Kinase panel, radiometric 33P filter binding; assay type: biochemical
Excerpt: as §1

ABL = ABL (Homo sapiens, UniProt P00519); assay: Kinase panel, radiometric 33P filter binding; assay type: biochemical
Excerpt: as §1

MAPKAP-K2 = MAPKAP-K2 (Homo sapiens, UniProt P49137); assay: Kinase panel, radiometric 33P filter binding; conditions: read-out: % activity remaining
PKBa = PKBa (Homo sapiens, UniProt P31749); assay: Kinase panel, radiometric 33P filter binding; conditions: read-out: % activity remaining
Excerpt: as §2

p38g MAPK = p38g MAPK (Homo sapiens, UniProt P53778); assay: Kinase panel, radiometric 33P filter binding; conditions: read-out: % activity remaining
Excerpt: as §2

IR, sequence (P06213 28-1382): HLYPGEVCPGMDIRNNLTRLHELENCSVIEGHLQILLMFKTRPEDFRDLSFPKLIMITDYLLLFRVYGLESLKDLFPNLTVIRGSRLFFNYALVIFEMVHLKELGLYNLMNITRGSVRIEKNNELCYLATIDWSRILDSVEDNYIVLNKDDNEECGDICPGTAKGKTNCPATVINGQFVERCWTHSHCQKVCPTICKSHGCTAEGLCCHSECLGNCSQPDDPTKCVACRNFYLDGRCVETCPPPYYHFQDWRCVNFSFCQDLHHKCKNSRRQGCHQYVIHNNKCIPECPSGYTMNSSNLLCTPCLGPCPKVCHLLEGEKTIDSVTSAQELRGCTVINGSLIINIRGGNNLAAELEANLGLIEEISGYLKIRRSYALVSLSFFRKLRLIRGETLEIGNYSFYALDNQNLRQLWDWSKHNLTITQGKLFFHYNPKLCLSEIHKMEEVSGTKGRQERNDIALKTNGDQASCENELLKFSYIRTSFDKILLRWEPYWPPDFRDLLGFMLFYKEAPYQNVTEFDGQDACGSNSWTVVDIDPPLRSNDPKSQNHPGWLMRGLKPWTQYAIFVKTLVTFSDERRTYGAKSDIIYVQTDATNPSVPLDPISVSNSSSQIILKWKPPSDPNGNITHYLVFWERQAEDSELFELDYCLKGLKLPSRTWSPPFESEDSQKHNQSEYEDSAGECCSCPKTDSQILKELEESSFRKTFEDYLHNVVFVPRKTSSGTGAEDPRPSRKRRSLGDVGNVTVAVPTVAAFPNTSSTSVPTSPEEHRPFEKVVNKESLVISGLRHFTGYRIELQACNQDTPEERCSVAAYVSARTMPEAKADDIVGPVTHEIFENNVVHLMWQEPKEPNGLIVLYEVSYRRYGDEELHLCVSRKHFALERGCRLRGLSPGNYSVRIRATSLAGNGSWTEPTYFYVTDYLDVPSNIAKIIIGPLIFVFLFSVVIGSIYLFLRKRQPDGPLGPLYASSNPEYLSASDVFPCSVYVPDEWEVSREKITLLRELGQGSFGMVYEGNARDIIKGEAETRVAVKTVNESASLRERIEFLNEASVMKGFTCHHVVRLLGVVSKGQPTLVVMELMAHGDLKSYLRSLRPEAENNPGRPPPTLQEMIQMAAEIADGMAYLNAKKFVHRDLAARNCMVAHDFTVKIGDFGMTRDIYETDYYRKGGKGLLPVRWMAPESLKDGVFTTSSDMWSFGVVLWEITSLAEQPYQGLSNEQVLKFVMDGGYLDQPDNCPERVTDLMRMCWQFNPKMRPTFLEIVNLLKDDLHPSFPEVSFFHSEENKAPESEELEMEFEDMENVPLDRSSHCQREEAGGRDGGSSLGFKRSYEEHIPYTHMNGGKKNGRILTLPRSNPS
SmMLCK, sequence (Q15746 923-1914): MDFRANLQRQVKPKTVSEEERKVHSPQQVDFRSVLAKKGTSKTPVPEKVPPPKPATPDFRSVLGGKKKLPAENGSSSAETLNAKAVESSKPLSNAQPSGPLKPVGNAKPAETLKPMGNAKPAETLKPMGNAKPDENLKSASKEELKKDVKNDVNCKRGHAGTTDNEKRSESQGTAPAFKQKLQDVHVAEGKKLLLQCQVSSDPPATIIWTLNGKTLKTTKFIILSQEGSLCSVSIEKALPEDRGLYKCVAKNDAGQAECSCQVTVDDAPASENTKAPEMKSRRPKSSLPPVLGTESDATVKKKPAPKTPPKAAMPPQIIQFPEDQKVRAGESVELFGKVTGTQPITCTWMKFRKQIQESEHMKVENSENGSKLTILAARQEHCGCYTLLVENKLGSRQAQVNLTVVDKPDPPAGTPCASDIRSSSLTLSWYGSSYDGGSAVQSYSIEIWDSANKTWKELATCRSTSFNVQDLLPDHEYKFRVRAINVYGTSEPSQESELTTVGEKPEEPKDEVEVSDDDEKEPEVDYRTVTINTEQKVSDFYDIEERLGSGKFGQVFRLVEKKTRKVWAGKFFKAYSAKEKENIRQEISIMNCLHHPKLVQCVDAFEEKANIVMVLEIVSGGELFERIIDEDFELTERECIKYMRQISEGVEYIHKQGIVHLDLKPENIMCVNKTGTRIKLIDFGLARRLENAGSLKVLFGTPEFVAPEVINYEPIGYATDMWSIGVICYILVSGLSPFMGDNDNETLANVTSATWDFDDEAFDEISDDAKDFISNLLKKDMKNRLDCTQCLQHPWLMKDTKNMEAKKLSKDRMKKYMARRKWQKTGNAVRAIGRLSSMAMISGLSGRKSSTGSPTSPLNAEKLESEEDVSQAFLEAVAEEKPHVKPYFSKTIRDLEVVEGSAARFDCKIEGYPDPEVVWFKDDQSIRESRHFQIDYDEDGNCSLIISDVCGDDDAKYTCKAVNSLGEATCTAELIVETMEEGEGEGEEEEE
CDK9-Cyclin T1, sequence (P50750 whole entry): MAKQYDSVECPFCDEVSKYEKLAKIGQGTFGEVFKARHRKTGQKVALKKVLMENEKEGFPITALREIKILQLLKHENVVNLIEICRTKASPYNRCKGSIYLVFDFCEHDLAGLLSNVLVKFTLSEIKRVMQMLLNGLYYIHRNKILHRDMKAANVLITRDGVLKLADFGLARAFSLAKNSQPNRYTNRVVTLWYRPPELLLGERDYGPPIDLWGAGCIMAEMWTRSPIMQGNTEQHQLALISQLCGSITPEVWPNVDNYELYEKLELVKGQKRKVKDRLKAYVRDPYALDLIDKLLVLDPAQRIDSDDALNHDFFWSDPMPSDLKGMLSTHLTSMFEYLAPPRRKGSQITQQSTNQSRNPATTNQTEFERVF
CDK9-Cyclin T1, sequence (O60563 whole entry partner): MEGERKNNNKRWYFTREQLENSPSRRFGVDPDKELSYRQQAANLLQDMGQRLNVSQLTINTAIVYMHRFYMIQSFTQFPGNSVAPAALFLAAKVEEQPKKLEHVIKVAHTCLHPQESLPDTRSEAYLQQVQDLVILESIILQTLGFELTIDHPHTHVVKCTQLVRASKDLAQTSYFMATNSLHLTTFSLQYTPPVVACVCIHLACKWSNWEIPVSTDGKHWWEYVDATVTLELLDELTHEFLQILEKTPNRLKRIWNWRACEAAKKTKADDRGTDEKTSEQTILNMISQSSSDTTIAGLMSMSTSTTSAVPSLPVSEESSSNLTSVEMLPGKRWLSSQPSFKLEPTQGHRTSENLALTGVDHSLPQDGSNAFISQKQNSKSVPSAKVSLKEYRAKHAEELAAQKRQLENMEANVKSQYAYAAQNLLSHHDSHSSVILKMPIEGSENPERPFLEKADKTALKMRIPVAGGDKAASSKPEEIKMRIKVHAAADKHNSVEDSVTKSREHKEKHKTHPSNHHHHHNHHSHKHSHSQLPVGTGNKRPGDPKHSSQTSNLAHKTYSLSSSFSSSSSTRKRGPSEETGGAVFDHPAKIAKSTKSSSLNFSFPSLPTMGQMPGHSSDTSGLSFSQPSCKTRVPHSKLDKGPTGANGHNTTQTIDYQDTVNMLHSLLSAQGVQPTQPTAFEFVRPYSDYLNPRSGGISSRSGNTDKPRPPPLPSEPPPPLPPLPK
S6K1, sequence (P23443 whole entry): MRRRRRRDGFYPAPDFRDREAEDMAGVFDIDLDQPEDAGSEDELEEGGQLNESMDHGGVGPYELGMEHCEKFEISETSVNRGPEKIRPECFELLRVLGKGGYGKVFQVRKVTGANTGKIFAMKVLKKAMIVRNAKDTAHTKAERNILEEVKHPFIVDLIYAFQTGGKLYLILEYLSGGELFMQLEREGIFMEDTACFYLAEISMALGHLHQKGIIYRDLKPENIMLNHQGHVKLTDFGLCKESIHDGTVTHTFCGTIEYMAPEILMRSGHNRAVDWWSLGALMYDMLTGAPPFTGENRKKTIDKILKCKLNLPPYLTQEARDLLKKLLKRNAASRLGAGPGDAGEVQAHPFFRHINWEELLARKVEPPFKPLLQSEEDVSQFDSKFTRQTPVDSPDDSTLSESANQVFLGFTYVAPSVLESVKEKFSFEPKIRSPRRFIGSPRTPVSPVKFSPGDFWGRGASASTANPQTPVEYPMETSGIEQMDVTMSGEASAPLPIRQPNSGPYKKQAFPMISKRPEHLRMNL
TLK1, sequence (Q9UKI8 whole entry): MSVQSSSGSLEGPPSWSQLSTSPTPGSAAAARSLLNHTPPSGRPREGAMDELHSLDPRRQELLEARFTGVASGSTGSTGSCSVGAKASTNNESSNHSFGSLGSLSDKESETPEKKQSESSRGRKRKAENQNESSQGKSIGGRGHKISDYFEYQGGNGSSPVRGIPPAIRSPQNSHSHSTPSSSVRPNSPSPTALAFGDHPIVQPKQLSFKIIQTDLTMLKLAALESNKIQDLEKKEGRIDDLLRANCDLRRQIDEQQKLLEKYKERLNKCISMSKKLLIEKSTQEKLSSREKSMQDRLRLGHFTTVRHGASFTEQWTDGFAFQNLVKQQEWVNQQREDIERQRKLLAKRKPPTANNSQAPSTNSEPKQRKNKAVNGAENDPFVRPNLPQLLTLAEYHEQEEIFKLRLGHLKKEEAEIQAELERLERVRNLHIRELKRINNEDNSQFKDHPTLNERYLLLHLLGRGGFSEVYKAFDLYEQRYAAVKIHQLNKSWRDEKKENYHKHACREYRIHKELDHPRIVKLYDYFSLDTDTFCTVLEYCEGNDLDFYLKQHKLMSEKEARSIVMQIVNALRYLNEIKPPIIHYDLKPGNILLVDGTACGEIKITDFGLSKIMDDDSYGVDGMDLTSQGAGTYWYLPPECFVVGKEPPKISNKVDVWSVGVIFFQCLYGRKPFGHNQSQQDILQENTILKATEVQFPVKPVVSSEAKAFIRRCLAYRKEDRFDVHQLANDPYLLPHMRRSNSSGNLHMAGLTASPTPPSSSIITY

| ΔTm at 63 µM (PI5P4Kα) [°C] | Structure (SMILES) | remaining activity at 10 µM (MINK1) [%] | remaining activity at 10 µM (PIM3) [%] | remaining activity at 10 µM (p38a MAPK) [%] | remaining activity at 10 µM (IR) [%] | remaining activity at 10 µM (TLK1) [%] | remaining activity at 10 µM (EPH-B4) [%] | remaining activity at 10 µM (MNK2) [%] | remaining activity at 10 µM (RSK2) [%] | remaining activity at 10 µM (EPH-B2) [%] | remaining activity at 10 µM (ASK1) [%] | remaining activity at 10 µM (PDGFRA) [%] | remaining activity at 10 µM (S6K1) [%] | remaining activity at 10 µM (CDK9-Cyclin T1) [%] | remaining activity at 10 µM (SmMLCK) [%] | remaining activity at 10 µM (ABL) [%] | remaining activity at 10 µM (MAPKAP-K2) [%] | remaining activity at 10 µM (PKBa) [%] | remaining activity at 10 µM (p38g MAPK) [%] |
| --- | --- | --- | --- | --- | --- | --- | --- | --- | --- | --- | --- | --- | --- | --- | --- | --- | --- | --- | --- |
| -0.2 ± 0.4 | FC(F)(F)c1ccccc1-c1nc(NCc2cccs2)c2ccccc2n1 [Compound 1, NIH-12848, reference compound] |  |  |  |  |  |  |  |  |  |  |  |  |  |  |  |  |  |  |
|  | CC(C)c1ccccc1-c1nc(NCc2ccccn2)c2c(ccn2C)n1 [Compound 40] | 95 | 87 | 100 | 119 | 115 | 120 | 117 | 106 | 78 | 116 | 100 | 95 | 108 | 108 | 108 | 123 | 103 | 105 |
